Experimental data as given in patent publication US20080207885A1, “Method for site-specific labeling of RNA using a deoxyribozyme” (priority 2007, published 2008).
{App} = adenylated (5'-5' adenylyl pyrophosphate) terminus

Key:
Assay type in all cases: biochemical
[1] = tested on: 10DM24-C44T mutant deoxyribozyme; test: Ligation of NTP substrate with 10DM24 variant in which the terminal P4 nucleotide is changed C→T, cofactor RΔ; conditions: for krel = kobs,NTP*/kobs,NTP: relative to ATP
Description: (§1) General Description of Kinetic Assays. All kinetic assays with the 10DM24 deoxyribozyme and its variants were performed according to established methods (Flynn-Charlebois, et al. (2003) supra; Wang and Silverman (2003) supra). The 5′-^32P-labeled RNA substrate (L for “left-hand substrate”) that provides the branch-site adenosine was the limiting reagent relative to 10DM24 (E) and the truncated cofactor RNA (RΔ; R originally derived from “right-hand substrate”). The ratio L:E:RΔ was 1:10:30, with 0.25 μM 10DM24. The cofactor RΔ was 5′-phosphorylated unless otherwise stated. The RNA substrate L, deoxyribozyme 10DM24 and cofactor RΔ were annealed in 5 mM HEPES, pH 7.5, 15 mM NaCl, 0.1 mM EDTA by heating at 95° C. for 3 minutes and cooling on ice for 5 minutes. The ligation reactions were performed with the appropriate concentration of NTP substrate (0.05-50 mM) at a final buffer concentration of 100 mM CHES, pH 9.0, 150 mM NaCl, 2 mM KCl, and 40-400 mM MgCl2 at 37° C. for up to 5 hours. The combination of 1 mM NTP and 40 mM MgCl2 was defined as “standard incubation conditions”; 10 mM NTP and 150 mM MgCl2 was defined as “enhanced incubation conditions”. At appropriate timepoints, aliquots were removed from the sample, quenched into stop solution (80% formamide, 1× TB [89 mM each Tris and boric acid, pH 8.3], and 50 mM EDTA containing 0.025% bromophenol blue and xylene cyanol) and stored at −20° C. prior to analysis. Samples were separated by 20% denaturing PAGE at 30 W for 115 minutes and imaged with a PHOSPHORIMAGER. The resulting data were fit to the equation yield=Y·(1−e^−kt), where k=kobs and Y=final yield.
Focus was then placed on the purine NTPs (GTP, ATP) and their derivatives. When 1 mM ATP was provided as a small molecule substrate in place of GTP using the original 10DM24 sequence and RΔ, no reaction was observed (<1% in 5 hours). […] Furthermore, the kobs increased sixteen-fold to 0.013 min^−1 under enhanced conditions with 10 mM ATP (82% yield in 3 hours).

10DM24 deoxyribozyme [2] = test: Ligation with full-length R oligonucleotide as substrate, varied 5′-terminal nucleotide; conditions: for kobs: full-length R substrate, deoxyribozyme nucleotide changed to maintain Watson-Crick complementarity
Description: as §1
The generality of the ligation reaction using other NTP substrates in place of GTP was also determined. The analogous reaction with the full-length R oligonucleotide as substrate proceeded well when a 5′-terminal G was present (kobs 0.51 min^−1 for 5′-AppG), with only three-fold reduced rate with 5′-AppA (kobs 0.18 min^−1). The RNA substrate with 5′-AppC reacted 20-fold more slowly than 5′-AppG, but still gave high yield (kobs 0.024 min^−1; 89% in 3 hours), whereas the yield with 5′-AppU was very poor (kobs 0.002 min^−1; 9% in 3 hours). It is noted that in all cases, the corresponding deoxyribozyme nucleotide was changed to maintain Watson-Crick complementarity.

10DM24 deoxyribozyme [3] = test: 10DM24-catalyzed ligation of small-molecule NTP substrate to branch-site adenosine of RNA substrate L with cofactor RΔ; conditions: for kobs,enh/kobs,std: GTP series; for krel = kobs,NTP*/kobs,NTP: relative to GTP
Description: as §1
Use of Free NTPs as Substrates. It was determined whether 10DM24 could catalyze ligation with free GTP as a substrate (see FIG. 1B), thereby transferring guanosine 5′-monophosphate (GMP) to the branch-site adenosine 2′-hydroxyl group. When RΔ, an oligoribonucleotide cofactor that corresponds to all of the remaining nucleotides of R, was added to 10DM24 along with GTP, ligation was efficient (FIG. 8; 94% yield in 5 hours and kobs 0.034 min^−1 under the standard incubation conditions of 1 mM GTP and 40 mM MgCl2 at pH 9.0, 37° C.). The RNA product with the single added guanosine at the branch-site adenosine was PAGE-purified and the identity confirmed by partial alkaline hydrolysis (50 mM NaHCO3 at 95° C. for 5 minutes) and MALDI mass spectrometry (m/z calcd. 5433, found 5437±5).

10DM24 deoxyribozyme [4] = test: Ligation of GTP or pppGpG in presence of shorter cofactor RΔΔ; conditions: RΔΔ cofactor, 20 mM NTP and 150 mM MgCl2, pH 9.0, 37° C.
Description: It was subsequently shown that a binding site for an NTP cofactor can be located adjacent to the substrate binding site. This was achieved by removing an additional nucleotide from the RΔ cofactor, forming the shorter RΔΔ cofactor which required two added nucleotides to reconstitute the complete P4 region (FIG. 10). The 10DM24-catalyzed ligation reaction of GTP in the presence of the two-nucleotide short cofactor RΔΔ was performed with the 5′-^32P-labeled RNA substrate (L) that provides the branch-site adenosine as the limiting reagent. For kinetic assays, the ratio of L:E:RΔΔ was 1:10:30 with 0.25 μM deoxyribozyme (E). For isolation of the reaction products, the ratio L:E:RΔΔ was 1:2:3 with 1.5 μM deoxyribozyme. The reaction was performed under the enhanced incubation conditions with 20 mM GTP and 150 mM MgCl2 in 100 mM CHES, pH 9.0, 150 mM NaCl, and 2 mM KCl at 37° C. for up to 7 hours. […] Both products were isolated and shown by partial alkaline hydrolysis to be branched with the connectivities A-G and A-GG (where A is the branch-site adenosine).
It was contemplated that the new A-GG product was formed by initial templated but otherwise uncatalyzed synthesis of a GG dinucleotide (i.e., pppGpG) from two GTP molecules, followed by 10DM24-catalyzed branch formation using this dinucleotide. […] The reaction was performed under the enhanced incubation conditions of 20 mM GTP and 150 mM MgCl2. […] The pppGpG dinucleotide was synthesized independently using T7 RNA polymerase (Huang, et al. (1998) supra) and led solely to the A-GG product. Although the pppGpG substrate had Kd,app of >1 mM with RΔΔ, similar to Kd,app for GTP with RΔ, the ligation reaction with pppGpG and RΔΔ had kobs six-fold higher than for the analogous reaction with GTP and RΔ (Table 8).
Similar experiments were performed using the mutant 10DM24 deoxyribozyme that has CTTT rather than CCTT in the P4 region (FIG. 11). For the DNA-catalyzed ligation of pppGpG, the 5′-^32P-labeled RNA with the branch-site adenosine (L) was incubated with the 10DM24 deoxyribozyme (E) and the cofactor RΔΔ in the ratio of L:E:RΔΔ=1:10:30 in the presence of 1 mM pppGpG and 40 mM MgCl2 in 100 mM CHES pH 9.0, 150 mM NaCl, and 2 mM KCl at 37° C. The analysis of the ligation reaction was performed as described herein. […] This is consistent with the model that pppGpG and the first two nucleotides of RΔΔ together reconstitute the P4 helix. When the ligation reaction with pppGpG was tested in the presence of RΔ instead of RΔΔ, the ligation product A-GG was formed, but with a 10-fold decrease in kobs (squares in FIG. 11). Because RΔ provides an extraneous G nucleotide when combined with pppGpG (see legend of FIG. 11), some disruption in activity is perhaps anticipated. […] This is consistent with the observation that GTP was also not a substrate for the 10DM24-C44T mutant deoxyribozyme.
The ligation reaction of pppGpG was also performed using a variety of pppGpG concentrations with the parent 10DM24 deoxyribozyme in the presence of RΔΔ and 40 mM MgCl2. In FIG. 12, the kobs values are plotted versus [pppGpG] and fit to kobs=kmax·[pppGpG]/(Kd,app+[pppGpG]). The Kd,app for pppGpG was >1 mM.

[5] = standard incubation conditions: 1 mM NTP, 40 mM MgCl2, pH 9.0, 37° C., RΔ, ATP series
[6] = enhanced incubation conditions: 10 mM NTP, 150 mM MgCl2, 100 mM CHES pH 9.0, 37° C.
[7] = standard incubation conditions: 1 mM NTP, 40 mM MgCl2, 100 mM CHES pH 9.0, 150 mM NaCl, 2 mM KCl, 37° C., RΔ
[8] = enhanced incubation conditions: 10 mM NTP, 150 mM MgCl2, pH 9.0, 37° C.
[9] = standard conditions except with 50 mM CHES

| Compound | ligation yield %, 5 h ([1]; standard incubation conditions) [%] | kobs [1, 5] [min⁻¹] | krel = kobs,NTP*/kobs,NTP ([1]; standard incubation conditions) | kobs,enh/kobs,std (10DM24 deoxyribozyme [3]) | ligation yield %, 3 h (10DM24 deoxyribozyme [3]; enhanced incubation conditions) [%] | kobs (10DM24 deoxyribozyme [3]; [6]) [min⁻¹] | krel = kobs,NTP*/kobs,NTP (10DM24 deoxyribozyme [3]; enhanced incubation conditions) | ligation yield %, 5 h (10DM24 deoxyribozyme [3]; standard incubation conditions) [%] | kobs (10DM24 deoxyribozyme [3]; [7]) [min⁻¹] | krel = kobs,NTP*/kobs,NTP (10DM24 deoxyribozyme [3]; standard incubation conditions) | kobs,enh/kobs,std ([1]; ATP series) | ligation yield %, 3 h ([1]; enhanced incubation conditions) [%] | kobs [1, 8] [min⁻¹] | krel = kobs,NTP*/kobs,NTP ([1]; enhanced incubation conditions) | also measured |
| --- | --- | --- | --- | --- | --- | --- | --- | --- | --- | --- | --- | --- | --- | --- | --- |
| Nc1ncnc2c1ncn2[C@H]1CC[C@@H](COP(=O)(O)OP(=O)(O)OP(=O)(O)O)O1 [ddATP] | 25 | 0.0007 | 0.87 |  |  |  |  |  |  |  |  |  |  |  |  |
| 5′-AppC: full-length R oligonucleotide substrate with 5′-terminal C (CGAAGAGAUGGCGACGG; RNA, 5' {App}, backbone not given here) |  |  |  |  |  |  |  |  |  |  |  |  |  |  | reacted more slowly than 5′-AppG (10DM24 deoxyribozyme [2]): 20 fold; ligation yield in 3 hours (10DM24 deoxyribozyme [2]): 89%; kobs (10DM24 deoxyribozyme [2]): 0.024 min⁻¹ |
| Nc1nc2c(ncn2COCCOP(=O)(O)OP(=O)(O)OP(=O)(O)O)c(=O)[nH]1 [G^acv-TP, acyclovir triphosphate] |  |  |  | >7 | 14 | 0.0007 | 0.003 | <1 | <0.0001 | <0.0003 |  |  |  |  | kobs diminished relative to GTP (10DM24 deoxyribozyme [3]): ~300 fold |
| Nc1ncnc2c1ncn2[C@H]1C[C@H](O)[C@@H](COP(=O)(O)OP(=O)(O)OP(=O)(O)O)O1 [dATP] | 17 | 0.0004 | 0.50 |  |  |  |  |  |  |  | 19 | 65 | 0.007 | 0.56 |  |
| 5′-AppA: full-length R oligonucleotide substrate with 5′-terminal A (AGAAGAGAUGGCGACGG; RNA, 5' {App}, backbone not given here) |  |  |  |  |  |  |  |  |  |  |  |  |  |  | kobs (10DM24 deoxyribozyme [2]): 0.18 min⁻¹ |
| Nc1ncc2ncn([C@H]3C[C@H](O)[C@@H](COP(=O)(O)OP(=O)(O)OP(=O)(O)O)O3)c2n1 [d2AP-TP] | <1 |  | <0.1 |  |  |  | 0.003 |  |  | <0.0003 | >8 | 17 | 0.0008 | 0.06 | kobs ([1]; standard conditions with 5′-OH-RΔ): <0.0001^[c] min^−1 |
| 5′-AppU: full-length R oligonucleotide substrate with 5′-terminal U (UGAAGAGAUGGCGACGG; RNA, 5' {App}, backbone not given here) |  |  |  |  |  |  |  |  |  |  |  |  |  |  | ligation yield in 3 hours (10DM24 deoxyribozyme [2]): 9%; kobs (10DM24 deoxyribozyme [2]): 0.002 min⁻¹ |
| C2-C3-cleaved GTP [G^clv-TP] |  |  |  | >3 | 6 | 0.0003 | 0.001 | <1 | <0.0001 | <0.0003 |  |  |  |  | kobs diminished relative to GTP (10DM24 deoxyribozyme [3]): approximately 1000 fold |
| O=P(O)(O)OP(=O)(O)OP(=O)(O)OC[C@H]1O[C@@H](n2cnc3c(O)ncnc32)[C@H](O)[C@@H]1O [ITP, inosine triphosphate] |  |  |  | 21 | 84 | 0.014 | 0.05 | 25 | 0.0007 | 0.02 |  |  |  |  |  |
| Nc1nc2c(ncn2[C@H]2C[C@H](O)[C@@H](COP(=O)(O)OP(=O)(O)OP(=O)(O)O)O2)c(=O)[nH]1 [dGTP, 2′-deoxyGTP] |  |  |  | 4 | 90 | 0.081 | 0.31 | 88 | 0.020 | 0.60 |  |  |  |  | reaction products formed (10DM24 deoxyribozyme [4]): only the single-nucleotide addition product |
| Nc1nc(N)c2ncn(C3OC(COP(=O)(O)OP(=O)(O)OP(=O)(O)O)C(O)C3O)c2n1 (stereo not shown) [DTP, 2,6-diaminopurine ribonucleoside triphosphate] | 68 | 0.0032 | 4.0 |  |  |  |  |  |  |  | 8 | 90 | 0.027 | 2.1 |  |
| Nc1nc2c(ncn2[C@H]2CC[C@@H](COP(=O)(O)OP(=O)(O)OP(=O)(O)O)O2)c(=O)[nH]1 [ddGTP, 2′,3′-dideoxyGTP] |  |  |  |  |  |  |  |  |  |  |  |  |  |  | kobs (10DM24 deoxyribozyme [3]; [9]): 0.013 min⁻¹; ligation yield %, 5 h (10DM24 deoxyribozyme [3]; [9]): 85%; krel = kobs,NTP*/kobs,NTP (10DM24 deoxyribozyme [3]; [9]): 0.38 |
| Nc1ncnc2c1ncn2[C@@H]1O[C@H](COP(=O)(O)OP(=O)(O)OP(=O)(O)O)[C@@H](O)[C@@H]1O [ara-ATP, arabino-ATP] | 13 | 0.0004 | 0.50 |  |  |  |  |  |  |  | 13 | 44 | 0.005 | 0.41 |  |
